What all share (assay type): cell-based
Test [1] deals with Human iPS cells (HC-6 #10 strain). The test can be described thus: Cell mass from human iPS cells using BMP signal transduction pathway inhibiting substance (K02288) after addition of BMP4; bright field observation and immunostaining. The following applies: K02288 300 nM added on day 3, 6 or 10; day 28. The protocol: Human iPS cells (HC-6 #10 strain, obtained from RIKEN) were cultured under feeder-free conditions according to the method described in Scientific Reports, 4, 3594 (2014). As the feeder-free medium, StemFit medium was used and, as the feeder-free scaffold, Laminin 511-E8 was used.
(§1) Specific maintenance culturing operation was performed in the same manner as in Example 1.
The thus-prepared subconfluent human iPS cells were washed with PBS, subjected to an enzyme treatment using Accumax, a serum-free medium for differentiation induction was added, and the cells were scraped from the surface of the culture dish by using a cell scraper and dispersed into single cells by pipetting. Thereafter, the aforementioned human ES cells dispersed into single cells were suspended in 100 μl of a serum-free medium at 9×10^3 cells per well of a non-cell-adhesive 96-well culture plate (PrimeSurface 96V-bottom plate, manufactured by SUMITOMO BAKELITE), and cultured in suspension under the conditions of 37° C., 5% CO2. […]

Test [2] has as its system Human ES cells (KhES-1 strain). Nature of the test: Addition conditions of Sonic hedgehog signal transduction pathway activating substance (SAG) in production of cell mass containing pituitary tissue; bright field observation. The following applies: day 28. The protocol: (§2) Human ES cells (KhES-1 strain, obtained from Kyoto University) were cultured under feeder-free conditions according to the method described in Scientific Reports, 4, 3594 (2014). As the feeder-free medium, StemFit medium was used and, as the feeder-free scaffold, Laminin 511-E8 was used.
as §1
(§3) Thereafter, suspension culturing in a 96 well plate was started under conditions similar to those in Example 1.
A serum-free medium not containing Y27632 and containing IWP-2, SB-431542, BMP4, and SAG was added at 100 μl per well on day 2 from the start of suspension culturing. BMP4 was added at 3 nM to the medium so that the final concentration in the well would be 1.5 nM. SAG was added at a final concentration of 100, 300, 500, 700 nM, 1, 2, 5 μM as a Sonic hedgehog signal transduction pathway activating substance. The condition without addition of a Sonic hedgehog signal transduction pathway activating substance during the suspension culturing period was taken as the control (-SAG condition, FIG. 5A).
A half amount of the medium was changed with a serum-free medium not containing Y27632 or BMP4, and containing IWP-2, SB-431542, each concentration of SAG on days 6, 10, 13, 17, 21, 24 from the start of suspension culturing. […]

For test [3], the system named is Human ES cells (KhES-1 strain). The test can be described thus: Effect of compound treatment before differentiation induction in production of cell mass containing pituitary tissue; bright field observation. The following applies: day 28. The protocol:
Human ES cells (KhES-1 strain) were cultured under feeder-free conditions according to the method described in Scientific Reports, 4, 3594 (2014). As the feeder-free medium, StemFit medium was used and, as the feeder-free scaffold, Laminin 511-E8 was used. Specific maintenance culturing operation was performed in the same manner as in Example 1. As a pre-treatment for differentiation induction of the cultured cells, cells under 4 conditions were maintenance cultured under conditions in which, condition in which nothing is simultaneously added with medium change with […] medium (Control), conditions in which 300 nM SAG alone is added (+300 nM SAG), conditions in which 5 μM SB-431542 alone is added (+5 μM SB-431542), and conditions in which SAG and SB431542 are simultaneously added (+SAG/SB) at 6 days after seeding. The next day of the above-mentioned treatment, human ES cells under 4 conditions that reached subconfluence were each subjected to differentiation induction by suspension culturing into a cell mass containing pituitary tissue according to the method described in Example 1. Bright field observation was performed under an inverted microscope on day 28 from the start of suspension culturing (FIGS. 6A-D).

Test [4] has as its system Human ES cells (KhES-1 strain). The test can be described thus: Timing of addition of BMP4 in production of cell mass from human ES cells; bright field observation. The following applies: for structure of cell mass (bright field): observed day 10. As to the method: as §2, §1, §3
The condition without addition of a BMP signal transduction pathway activating substance during the suspension culturing period was taken as the control (-BMP4 condition, FIG. 3A). Thereafter, in the condition with the addition of a BMP signal transduction pathway activating substance on days 1, 2 or 3 from the start of suspension culturing (Day1-3+BMP4 condition, FIGS. 3B-D), a serum-free medium not containing Y27632 and containing IWP-2, SB-431542, BMP4 was added at 100 μl per well. BMP4 was added at 3 nM to the medium so that the final concentration in the well would be 1.5 nM. […] On day 10 from the start of suspension culturing, bright field observation was performed using an inverted microscope (manufactured by KEYENCE CORPORATION, BIOREVO) (FIGS. 3A-D).

The subject of test [5] is Human ES cells (KhES-1 strain). The test can be described thus: Addition concentration of BMP4 in production of cell mass containing pituitary tissue; bright field observation. The following applies: 0.5 nM, 1.5 nM or 5 nM BMP4 added once on day 2; day 28. The protocol:
as §2, §1, §3
A serum-free medium not containing Y27632 and containing IWP-2, SB-431542, BMP4, and SAG was added at 100 μl per well on day 2 from the start of suspension culturing. In this case, the amount of BMP4 to be added was under 4 conditions of 0.5 nM, 1.5 nM, 5 nM and no addition control. BMP4 was added at twice the concentration set for the medium so that the final concentration set for the well could be achieved. SAG was added at 4 μM to the medium so that the final concentration in the well would be 2 μM.
A half amount of the medium was changed with a serum-free medium not containing Y27632 or BMP4 and containing IWP-2, SB-431542 and SAG on days 6, 10, 13, 17, 21 and 24 from the start of suspension culturing.
Bright field observation was performed under an inverted microscope on day 28 from the start of suspension culturing (FIGS. 8A-D).

Some results are limits rather than exact numbers.

Turning to `COc1cc(-c2cc(-c3cccc(O)c3)cnc2N)cc(OC)c1OC` [K02288, 3-[6-amino-5-(3,4,5-trimethoxyphenyl)-3-pyridinyl]-phenol], the “cell mass formation (bright field)” value in test [1] is listed as “a cell mass in which nonneural epithelial tissue surrounds neural tissue of the center part was formed”.
With `CNC1CCC(N(Cc2cccc(-c3ccncc3)c2)C(=O)c2sc3ccccc3c2Cl)CC1` (stereo not shown) [SAG], the “size of cell mass and formation of pituitary tissue on the surface” value in test [2] (SAG 100 nM, 300 nM, 500 nM, 700 nM, 1 μM or 2 μM compared with 5 μM) is “the size of the cell mass was larger and formation of pituitary tissue on the surface of cell mass was fine”. In test [2] (SAG 100, 300, 500, 700 nM, 1, 2, 5 μM added on day 2, compared with no SAG), the “structure of cell mass (bright field)” value is “cell masses with the nonneural epithelial tissue invaginated like Rathke's pouch on the surface and containing neuroepithelium-like tissue and mesenchymal cells in the inside”. The “size of cell mass” value in test [3] (pre-treatment with 300 nM SAG alone vs no addition) is listed as “cell mass became large”. In test [3] (pre-treatment with 300 nM SAG alone), the “presence of mesenchymal cell” value is “the presence of a mesenchymal cell could also be confirmed”.

B1: BMP4: BMP protein; BMP signal transduction pathway activating substance (protein, UniProt P12644 293-408, looked up)
Bone morphogenetic protein 4: SPKHHSQRARKKNKNCRRHSLYVDFSDVGWNDWIVAPPGYQAFYCHGDCPFPLADHLNSTNHAIVQTLVNSVNSSIPKACCVPTELSAISMLYLDEYDKVVLKNYQEMVVEGCGCR
On to B1, for which the “effective timing of addition from start of suspension culturing for formation of cell mass coated with nonneural epithelial tissue” value in test [4] (BMP4 1.5 nM) was at most 72 h. The “structure of cell mass (bright field)” value in test [4] (BMP4 1.5 nM added on day 1 or day 2) is “cell masses containing neural tissue and nonneural epithelial tissue and having a two-layer structure in which a center part with a neuroepithelium-like structure is covered with a nonneural epithelium-like layer were formed”; in test [4] (BMP4 1.5 nM added on day 3 (and day 6)) it was “outer nonneural epithelium-like tissue was not formed”. Moreover, the “size of embryoid body” value in test [4] (BMP4 added on day 2 compared with day 1, day 10) was “larger than the embryoid body obtained under the condition with the addition of BMP4 on day 1”. The “nonneural epithelial structure on surface of cell mass” value in test [5] is recorded as “a nonneural epithelial structure was formed on the surface of the cell mass”.

The values above are taken from patent US12485147B2, “Method for producing cell mass including pituitary tissue, and cell mass thereof” (SUMITOMO CHEMICAL COMPANY, LIMITED, priority 2017, dated 2025).
